Measured values: PubChem BioAssay (NCI)
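1) Cells in 96-well plates. 2) Compound, 48 h, 5 concentrations. 3) Linear interpolation between surrounding doses. 4) Unreached endpoint = highest concentration. GI50 is the concentration that inhibits growth by half. TGI is the concentration that stops growth completely.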

Experiments:
Assay in all cases: NCI-60 cell line screen, 48 h
ACHN renal = system: ACHN renal
EKVX NSCLC = system: EKVX NSCLC
IGROV1 ovarian = system: IGROV1 ovarian
NCI-H460 lung = system: NCI-H460 lung
OVCAR-3 ovarian = system: OVCAR-3 ovarian
SF-295 CNS = system: SF-295 CNS
SF-539 CNS = system: SF-539 CNS
SNB-19 CNS = system: SNB-19 CNS
BT-549 breast = system: BT-549 breast
SR leukemia = system: SR leukemia

| SMILES | TGI (ACHN renal) | TGI (EKVX NSCLC) | TGI (IGROV1 ovarian) | TGI (NCI-H460 lung) | TGI (OVCAR-3 ovarian) | TGI (SF-295 CNS) | TGI (SF-539 CNS) | TGI (SNB-19 CNS) | GI50 (ACHN renal) | GI50 (BT-549 breast) | TGI (BT-549 breast) | GI50 (EKVX NSCLC) | GI50 (IGROV1 ovarian) | GI50 (NCI-H460 lung) | GI50 (OVCAR-3 ovarian) | GI50 (SF-295 CNS) | GI50 (SF-539 CNS) | GI50 (SNB-19 CNS) | TGI (SR leukemia) |
| --- | --- | --- | --- | --- | --- | --- | --- | --- | --- | --- | --- | --- | --- | --- | --- | --- | --- | --- | --- |
| O=C(CC1(O)C(=O)Nc2ccccc21)c1cccc(O)c1 (stereo not given) | > 100 µM | > 100 µM | > 100 µM | > 100 µM | > 100 µM | > 100 µM | > 100 µM | > 100 µM | – | – | – | – | – | – | – | – | – | – | – |
| COc1cccc(NC(=O)/C(CS(=O)(=O)CCC(C(C)=O)C(C)=O)=N\NC(C)(C)C)c1 | > 100 µM | > 100 µM | > 100 µM | > 100 µM | > 100 µM | – | > 100 µM | > 100 µM | – | – | – | – | – | – | – | – | – | – | – |
| CC(=O)O[C@H]1CSC[C@@H](OC(C)=O)C1[N+](=O)[O-] (stereo not given in full) | > 100 µM | > 100 µM | > 100 µM | > 100 µM | 55.3 µM | > 100 µM | > 100 µM | > 100 µM | – | – | – | – | – | – | – | – | – | – | – |
| Cc1ccccc1NC(=O)C(=O)C(C(=O)c1ccccc1F)C1OC(=O)c2ccccc21 (stereo not given) | > 100 µM | > 100 µM | – | > 100 µM | 95 µM | – | 27.4 µM | 94.8 µM | – | – | – | – | – | – | – | – | – | – | – |
| O=C(O)CN(CCN(CC(=O)O)CC(=O)O)CC(=O)O.[Cu+2].[Na+] | > 100 µM | > 100 µM | > 100 µM | > 100 µM | 51.8 µM | 63.3 µM | > 100 µM | > 100 µM | > 100 µM | > 100 µM | > 100 µM | > 100 µM | > 100 µM | > 100 µM | 19.2 µM | 22.3 µM | > 100 µM | > 100 µM | – |
| COC(=O)CC(=O)OC1C[C@@H]2CCC3C(C)(C)CCC[C@]3(C)C23CC[C@@]1(C)C3 (stereo not given in full) | 31.7 µM | – | 31.8 µM | 37.5 µM | 30.7 µM | 34.5 µM | 39.1 µM | 31.6 µM | – | – | – | – | – | – | – | – | – | – | > 100 µM |
| CC(=O)OC1(C(C)=O)CC2(c3ccccc3)OC1(c1ccccc1)c1ccccc12 (stereo not given) | > 100 µM | > 100 µM | 56.7 µM | > 100 µM | > 100 µM | > 100 µM | > 100 µM | > 100 µM | – | – | – | – | – | – | – | – | – | – | > 100 µM |
| C=C(C)[C@@H]1CC[C@]2(C(=O)O)CC[C@]3(C)[C@H](CC[C@@H]4[C@@]5(C)CCC(N)C(C)(C)[C@@H]5CC[C@]43C)[C@@H]12 (stereo not given in full) | 5.32 µM | – | 6.22 µM | > 100 µM | 3.66 µM | – | 3.02 µM | – | 2.2 µM | – | – | – | 2.41 µM | 3.12 µM | 1.9 µM | – | 1.59 µM | – | – |
| CN(C(=O)C12C3C4C1C1C2C3C41C#N)C(C)(C)C (stereo not given) | > 100 µM | > 100 µM | > 100 µM | > 100 µM | > 100 µM | > 100 µM | > 100 µM | > 100 µM | – | – | – | – | – | – | – | – | – | – | – |
| O=C1N(c2ccc(Cl)cc2)C(=O)C2(SC=NN2Cc2ccccc2)N1c1ccc(Cl)cc1 (stereo not given) | > 100 µM | > 100 µM | > 100 µM | > 100 µM | > 100 µM | – | > 100 µM | > 100 µM | – | – | – | – | – | – | – | – | – | – | > 100 µM |
